“Also recorded” adds a separate entry of the source. Bridges are numbered along the chain shown (N, C = ends). Where no end group is shown, it is not given here.
B1: AjKiss1a (C-terminal amidated) (peptide)
peptide: AGSLDCLEASCEDVERRGRQPNRNAHYRTLPF-NH2
modifications: disulfide 6-11; N-terminus assumed
SMILES: CC(C)C[C@H](NC(=O)[C@H](CO)NC(=O)CNC(=O)[C@H](C)N)C(=O)N[C@@H](CC(=O)O)C(=O)N[C@H]1CSSC[C@@H](C(=O)N[C@@H](CCC(=O)O)C(=O)N[C@@H](CC(=O)O)C(=O)N[C@H](C(=O)N[C@@H](CCC(=O)O)C(=O)N[C@@H](CCCNC(=N)N)C(=O)N[C@@H](CCCNC(=N)N)C(=O)NCC(=O)N[C@@H](CCCNC(=N)N)C(=O)N[C@@H](CCC(N)=O)C(=O)N2CCC[C@H]2C(=O)N[C@@H](CC(N)=O)C(=O)N[C@@H](CCCNC(=N)N)C(=O)N[C@@H](CC(N)=O)C(=O)N[C@@H](C)C(=O)N[C@@H](Cc2c[nH]cn2)C(=O)N[C@@H](Cc2ccc(O)cc2)C(=O)N[C@@H](CCCNC(=N)N)C(=O)N[C@H](C(=O)N[C@@H](CC(C)C)C(=O)N2CCC[C@H]2C(=O)N[C@@H](Cc2ccccc2)C(N)=O)[C@@H](C)O)C(C)C)NC(=O)[C@H](CO)NC(=O)[C@H](C)NC(=O)[C@H](CCC(=O)O)NC(=O)[C@H](CC(C)C)NC1=O

What was measured:
AjKissR1 [1] = biological target: T1, AjKissR1 (Apostichopus japonicus, UniProt A0A5B7LK60); experiment: cell-based; assay type: cell-based; conditions: for Potency in triggering intracellular Ca2+ mobilization via AjKissR1 (in words): HEK293, Fura-2/AM, vertebrate kisspeptins and FITC-AjKiss1a at 1.0 μM
T1 sequence (A0A5B7LK60 1-378): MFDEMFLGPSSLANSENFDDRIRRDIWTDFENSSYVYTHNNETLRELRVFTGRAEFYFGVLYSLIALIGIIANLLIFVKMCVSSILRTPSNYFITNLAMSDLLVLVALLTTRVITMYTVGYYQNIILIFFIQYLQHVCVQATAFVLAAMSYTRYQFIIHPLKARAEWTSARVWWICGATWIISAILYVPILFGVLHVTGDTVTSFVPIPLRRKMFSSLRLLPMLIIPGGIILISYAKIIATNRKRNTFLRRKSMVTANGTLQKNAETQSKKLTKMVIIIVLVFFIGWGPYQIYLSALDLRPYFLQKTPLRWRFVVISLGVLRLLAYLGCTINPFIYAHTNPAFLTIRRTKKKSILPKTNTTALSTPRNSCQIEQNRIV
Method: (§1) The fluorescent Ca^2+ indicator Fura-2/AM was used to detect intracellular calcium flux ([Li et al., 2010]). Briefly, the HEK293 cells expressing the AjKissR1, AjKissR2 or vertebrate kisspeptin receptor were washed twice with PBS and suspended at 5 × 10^6 cells/mL in Hanks’ balanced salt solution. The cells were then loaded with 3.0 μM Fura-2/AM for 30 min and washed twice in Hanks’ solution. They were then stimulated with the indicated concentrations of different predicted A. japonicus kisspeptins or vertebrate kisspeptins. Finally, intracellular calcium flux was measured for 60 s, by determining the ratio of excitation wavelengths at 340 and 380 nm using a fluorescence spectrometer (Infinite 200 PRO, Tecan, Männedorf, Switzerland). All of the experiments for measuring Ca^2+ mobilization were repeated independently at least three times.

AjKissR2 [2] = biological target: T2, AjKissR2 (Apostichopus japonicus, UniProt A0A5B7LIE4); experiment: cell-based; assay type: cell-based; conditions: for Potency in triggering intracellular Ca2+ mobilization via AjKissR2 (in words): HEK293, Fura-2/AM, vertebrate kisspeptins and FITC-AjKiss1a at 1.0 μM
T2 sequence (A0A5B7LIE4 1-327): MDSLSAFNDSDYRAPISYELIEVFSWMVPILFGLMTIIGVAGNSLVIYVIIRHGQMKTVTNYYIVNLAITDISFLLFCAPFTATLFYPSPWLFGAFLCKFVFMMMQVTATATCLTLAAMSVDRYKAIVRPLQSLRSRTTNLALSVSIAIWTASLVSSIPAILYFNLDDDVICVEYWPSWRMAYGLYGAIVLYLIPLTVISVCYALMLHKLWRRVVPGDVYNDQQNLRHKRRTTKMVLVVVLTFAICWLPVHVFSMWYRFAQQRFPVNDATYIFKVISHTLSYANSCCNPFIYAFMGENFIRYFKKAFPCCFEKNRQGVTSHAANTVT
Method: as §1

AjKissR1 [3] = biological target: T1, AjKissR1; experiment: Ligand competition binding assay (FITC-AjKiss1a, FACS), HEK293/AjKissR1; conditions: 1.0 μM FITC-AjKiss1a, read-out: IC50 (competitive displacement of FITC-AjKiss1a)
Method: (§2) A fluorescence-activated cell sorter (FACS) was used to detect the binding ability of kisspeptins with AjKissR1 or AjKissR2. HEK293 cells expressing FLAG–AjKissR1 or FLAG–AjKissR2 were washed with PBS that contained 0.2% bovine serum albumin (FACS buffer). We designed and synthesized an N-terminal FITC-labeled AjKiss1a peptide (see 'Key resources table'). Different kisspeptins were diluted in the FACS buffer to different concentrations, then added to cells that were incubated on ice for 60–90 min. Cells were washed thrice with the FACS buffer and re-suspended in the FACS buffer with 1% paraformaldehyde for 15 min. The binding activity of the indicated kisspeptin peptides with AjKissR1 or AjKissR2 was determined by measuring the fluorescence of FITC and was presented as a percentage of total binding.

AjKissR2 [4] = biological target: T2, AjKissR2; experiment: Ligand competition binding assay (FITC-AjKiss1a, FACS), HEK293/AjKissR2; conditions: 1.0 μM FITC-AjKiss1a, read-out: IC50 (competitive displacement of FITC-AjKiss1a)
Method: as §2

AjKissR1 [5] = biological target: T1, AjKissR1; experiment: ERK1/2 phosphorylation (western blot) in HEK293 cells expressing FLAG-AjKissR1; assay type: cell-based; conditions: different concentrations for 5 min, immunoblot quantification, Figure 6A
Method: (§3) To examine the phosphorylation of ERK, cells that expressed AjKissr1/2 or other GPR54s were incubated for the indicated times with different concentrations of kisspeptins. Subsequently, cells were lysed with lysis buffer (Beyotime) that contained protease inhibitor (Roche) at 4°C for 30 min on a rocker and then scraped. Proteins were then electrophoresed on a 10% SDS polyacrylamide gel and transferred to polyvinylidene difluoride (PVDF) membranes. Membranes were blocked with 5% skimmed milk, then probed with rabbit anti-phospho-ERK1/2(Thr^202/Tyr^204) antibody (1:2000; Cell Signaling Technology), followed by detection using HRP-conjugated goat anti-rabbit IgG (Beyotime). Blots were stripped and reprobed using anti-ERK1/2 antibody (1:2000; Cell Signaling Technology) as a control for protein loading.
(§4) Immunoreactive bands were detected with an enhanced chemiluminescent substrate (Beyotime), and the membrane was scanned using a Tanon 5200 Chemiluminescent Imaging System (Tanon Science and Technology, Shanghai, China).

AjKissR2 [6] = biological target: T2, AjKissR2; experiment: ERK1/2 phosphorylation (western blot) in HEK293 cells expressing FLAG-AjKissR2; assay type: cell-based; conditions: different concentrations for 5 min, immunoblot quantification, Figure 6A
Method: as §3, §4

[7] = biological target: FLAG–AjKissR2 (Apostichopus japonicus); experiment: flow cytometry on cells; ligand competition: 1.0 uM FITC-AjKiss1a with unlabeled kisspeptins at the indicated concentrations on HEK293 cells expressing FLAG-AjKissR1 or FLAG-AjKissR2; on ice 60-90 min; PBS with 0.2% BSA; FITC fluorescence as percentage of total binding
FLAG–AjKissR1 = biological target: T3, FLAG–AjKissR1 (Apostichopus japonicus); experiment: competition with 1.0 uM FITC-AjKiss1a
T3 chain: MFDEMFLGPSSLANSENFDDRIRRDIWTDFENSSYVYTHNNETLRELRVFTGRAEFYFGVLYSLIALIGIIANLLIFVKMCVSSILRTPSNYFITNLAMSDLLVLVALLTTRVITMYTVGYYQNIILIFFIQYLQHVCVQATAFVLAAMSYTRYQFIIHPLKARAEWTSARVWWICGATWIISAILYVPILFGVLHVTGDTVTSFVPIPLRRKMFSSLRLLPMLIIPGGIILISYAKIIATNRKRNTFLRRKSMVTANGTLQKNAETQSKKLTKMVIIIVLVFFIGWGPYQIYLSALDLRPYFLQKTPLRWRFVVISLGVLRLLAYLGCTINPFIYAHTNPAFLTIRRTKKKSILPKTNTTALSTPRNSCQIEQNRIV

Molecule	Potency in triggering intracellular Ca2+ mobilization via AjKissR1 (in words) (AjKissR1 [1])	Potency in triggering intracellular Ca2+ mobilization via AjKissR2 (in words) (AjKissR2 [2])	also measured
GRQPNRNAHYRTLPF-NH2 [AjKiss1a-15, truncated peptide of AjKiss1a]	failed to activate	failed to activate	
HsNPS: human neuropeptide S, as a negative control (SFRNGVGTGMKKTSFQRAKS) [reference compound]	no potency	no potency	
SAVKNKNKSRARPPLLPF-NH2 [AjKiss1b]			EC50 (AjKissR1 [1]): 8.06 nM; EC50 (AjKissR2 [2]): 33.2 nM; IC50 (AjKissR1 [3]): 353 nM; IC50 (AjKissR2 [4]): 1250 nM
SRARPPLLPF-NH2 [AjKiss1b-10]			EC50 (AjKissR1 [1]): 1.71 nM; EC50 (AjKissR2 [2]): 27.3 nM; EC50 (AjKissR1 [5]): 31.6 nM; EC50 (AjKissR2 [6]): 98.7 nM
YNLNSFGLRY-NH2 [DrKiss1-10, synthetic zebrafish kisspeptin decapeptide, reference compound]	much lower potency; also recorded: potent	higher potency than that of HsKiss1-10; also recorded: potent	
YNVNSFGLRF-NH2 [XtKiss1b-10, synthetic frog kisspeptin decapeptide, reference compound]	higher potency; also recorded: potent	higher potency than that of HsKiss1-10; also recorded: potent	
YNWNSFGLRF-NH2 [HsKiss1-10, synthetic human kisspeptin decapeptide, reference compound]	higher potency; also recorded: potent	potent	
B1			IC50 [7]: 95.2 nM; IC50 (FLAG–AjKissR1): 568 nM
